Laboratory results: PubChem BioAssay (NCI)
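Compound exposure: 48 hours, 5 concentrations, 96-well plates. GI50: concentration for 50% inhibition of growth. TGI: concentration producing complete growth inhibition.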

Tests used:
Assay in all cases: NCI-60 cell line screen, 48 h
NCI-H226 lung = system: NCI-H226 lung
COLO 205 colon = system: COLO 205 colon
DU-145 prostate = system: DU-145 prostate
SK-OV-3 ovarian = system: SK-OV-3 ovarian
OVCAR-4 ovarian = system: OVCAR-4 ovarian
T-47D breast = system: T-47D breast
U251 CNS = system: U251 CNS
TK-10 renal = system: TK-10 renal
IGROV1 ovarian = system: IGROV1 ovarian
KM12 colon = system: KM12 colon
SR leukemia = system: SR leukemia

CC1OC(OC2C(OC(=O)[C@@H]3CC(C)(C)C[C@H]4C5=CC[C@@H]6[C@@]7(C)C[C@H](O)[C@H](OC8OC(CO)C(O)C(O)C8O)[C@@](C)(CO)[C@@H]7[C@H](O)C[C@@]6(C)[C@]5(C)CC[C@@]34C)OCC(O)C2O)C(O)C(O)C1O (stereo partly specified)
TGI (NCI-H226 lung): > 7.5 µM | TGI (COLO 205 colon): > 7.5 µM | TGI (DU-145 prostate): > 7.5 µM | TGI (SK-OV-3 ovarian): > 7.5 µM | TGI (OVCAR-4 ovarian): > 7.5 µM | TGI (T-47D breast): > 7.5 µM | TGI (U251 CNS): > 7.5 µM | TGI (TK-10 renal): > 7.5 µM | TGI (IGROV1 ovarian): > 7.5 µM | TGI (KM12 colon): > 7.5 µM

COC(=O)c1cnn2c1n[n+]([O-])c1ccccc12
TGI (NCI-H226 lung): > 100 µM | TGI (COLO 205 colon): > 100 µM | TGI (DU-145 prostate): > 100 µM | TGI (SK-OV-3 ovarian): > 100 µM | TGI (T-47D breast): > 100 µM | TGI (U251 CNS): > 100 µM | TGI (SR leukemia): > 100 µM | TGI (TK-10 renal): > 100 µM | TGI (IGROV1 ovarian): > 100 µM | TGI (KM12 colon): > 100 µM

CC(NC(C)(C)C)C(=O)c1cccc(Cl)c1 (stereo unspecified)
TGI (COLO 205 colon): > 100 µM | TGI (SK-OV-3 ovarian): > 100 µM | TGI (OVCAR-4 ovarian): > 100 µM | TGI (U251 CNS): > 100 µM | TGI (TK-10 renal): > 100 µM | TGI (IGROV1 ovarian): > 100 µM | TGI (KM12 colon): > 100 µM

COc1cccc(NC(=O)C(C#N)=C(SC)SC)c1
TGI (NCI-H226 lung): > 100 µM | TGI (COLO 205 colon): > 100 µM | TGI (SK-OV-3 ovarian): > 100 µM | TGI (OVCAR-4 ovarian): > 100 µM | TGI (U251 CNS): > 100 µM | TGI (TK-10 renal): > 100 µM | TGI (IGROV1 ovarian): > 100 µM | TGI (KM12 colon): > 100 µM

COc1ccc2oc(=N)c(C(=O)Nc3ccccn3)cc2c1
TGI (NCI-H226 lung): > 100 µM | TGI (COLO 205 colon): > 100 µM | TGI (DU-145 prostate): > 100 µM | TGI (SK-OV-3 ovarian): > 100 µM | TGI (OVCAR-4 ovarian): > 100 µM | TGI (T-47D breast): > 100 µM | TGI (U251 CNS): > 100 µM | TGI (SR leukemia): > 100 µM | TGI (IGROV1 ovarian): > 100 µM | TGI (KM12 colon): > 100 µM

Fc1ccccc1C1SCc2nc3cc4ccccc4cc3n21 (stereo unspecified)
TGI (NCI-H226 lung): > 100 µM | TGI (COLO 205 colon): > 100 µM | TGI (DU-145 prostate): > 100 µM | TGI (SK-OV-3 ovarian): > 100 µM | TGI (OVCAR-4 ovarian): > 100 µM | TGI (T-47D breast): > 100 µM | TGI (U251 CNS): > 100 µM | TGI (TK-10 renal): > 100 µM | TGI (IGROV1 ovarian): > 100 µM | TGI (KM12 colon): > 100 µM

Cc1n[nH]c(=O)n1/N=C/c1ccc([N+](=O)[O-])o1
TGI (NCI-H226 lung): 56 µM | TGI (COLO 205 colon): 20.8 µM | TGI (DU-145 prostate): 22.3 µM | TGI (SK-OV-3 ovarian): > 100 µM | TGI (OVCAR-4 ovarian): 32.3 µM | TGI (T-47D breast): 40.6 µM | TGI (U251 CNS): > 53.7 µM | TGI (TK-10 renal): 36.8 µM | TGI (KM12 colon): 29.3 µM

CC1OC(O[C@H]2/C=C/C=C/C=C/C=C/C=C/C=C/C=C/[C@H](C)[C@@H](O)[C@@H](C)[C@H](C)OC(=O)CC(O)CC(O)CCC(O)C(O)CC(O)C[C@]3(O)C[C@H](O)C(C(=O)O)C(C2)O3)C(O)[C@H](N)C1O (stereo partly specified)
GI50 (NCI-H226 lung): 2 µM | TGI (NCI-H226 lung): 4.31 µM | GI50 (COLO 205 colon): 4.19 µM | TGI (COLO 205 colon): 17.2 µM | GI50 (DU-145 prostate): 2.8 µM | TGI (DU-145 prostate): 7.22 µM | GI50 (T-47D breast): 16.4 µM | TGI (T-47D breast): 90.3 µM | GI50 (U251 CNS): 1.88 µM | TGI (U251 CNS): 3.79 µM | GI50 (TK-10 renal): 2.66 µM | TGI (TK-10 renal): 5.31 µM | GI50 (IGROV1 ovarian): 2.31 µM | TGI (IGROV1 ovarian): 4.73 µM | GI50 (KM12 colon): 6.16 µM | TGI (KM12 colon): 20.2 µM

O=C(O)CNC(=O)c1c2ccccc2nc2ccccc12
TGI (NCI-H226 lung): > 100 µM | TGI (COLO 205 colon): > 100 µM | TGI (DU-145 prostate): > 100 µM | TGI (SK-OV-3 ovarian): > 100 µM | TGI (OVCAR-4 ovarian): > 100 µM | TGI (U251 CNS): > 100 µM | TGI (SR leukemia): > 100 µM | TGI (TK-10 renal): > 100 µM | TGI (IGROV1 ovarian): > 100 µM | TGI (KM12 colon): > 100 µM

CCC(c1c[nH]c2ccc(Br)cc12)c1c[nH]c2ccc(Br)cc12
TGI (NCI-H226 lung): 44 µM | TGI (COLO 205 colon): 6.09 µM | TGI (DU-145 prostate): 10.8 µM | TGI (SK-OV-3 ovarian): 24.1 µM | TGI (OVCAR-4 ovarian): 8.11 µM | TGI (T-47D breast): 7.97 µM | TGI (U251 CNS): 13.3 µM | TGI (TK-10 renal): 22.9 µM | TGI (IGROV1 ovarian): 19 µM | TGI (KM12 colon): 4.22 µM

CN(CCCNC(=O)c1nn(-c2ccc(Cl)cc2Cl)c2c1Cc1ccccc1-2)CCCNC(=O)c1nn(-c2ccc(Cl)cc2Cl)c2c1Cc1ccccc1-2
TGI (COLO 205 colon): 3.26 µM | TGI (DU-145 prostate): 3.18 µM | TGI (SK-OV-3 ovarian): 3.06 µM | TGI (OVCAR-4 ovarian): 2.58 µM | TGI (T-47D breast): 3.76 µM | TGI (U251 CNS): 3.1 µM | TGI (TK-10 renal): 3.14 µM | TGI (KM12 colon): 4.01 µM

c1ccc(CSCCc2ccncc2)cc1
TGI (NCI-H226 lung): > 100 µM | TGI (COLO 205 colon): > 100 µM | TGI (DU-145 prostate): > 100 µM | TGI (SK-OV-3 ovarian): > 100 µM | TGI (OVCAR-4 ovarian): > 100 µM | TGI (T-47D breast): > 100 µM | TGI (U251 CNS): > 100 µM | TGI (TK-10 renal): > 100 µM | TGI (IGROV1 ovarian): > 100 µM | TGI (KM12 colon): > 100 µM

O=C(CC(=O)Nc1ccccc1)N/N=C/c1cc(N=Nc2ccc(Br)cc2)ccc1O
TGI (COLO 205 colon): > 10 µM | TGI (DU-145 prostate): > 10 µM | TGI (SK-OV-3 ovarian): > 10 µM | TGI (OVCAR-4 ovarian): > 10 µM | TGI (T-47D breast): > 10 µM | TGI (U251 CNS): > 10 µM | TGI (SR leukemia): 9.75 µM | TGI (TK-10 renal): > 10 µM | TGI (IGROV1 ovarian): > 10 µM | TGI (KM12 colon): > 10 µM

O=C(CSC1=NCCN1)Nc1ccccc1
TGI (DU-145 prostate): > 100 µM | TGI (OVCAR-4 ovarian): > 100 µM | TGI (T-47D breast): 61.2 µM | TGI (U251 CNS): 39.2 µM | TGI (SR leukemia): > 100 µM | TGI (TK-10 renal): 43.9 µM | TGI (IGROV1 ovarian): > 100 µM | TGI (KM12 colon): > 100 µM

Brc1c(C#CCC2CCCCC2)ccc(C#CCC2CCCCC2)c1Br
TGI (NCI-H226 lung): > 100 µM | TGI (COLO 205 colon): > 100 µM | TGI (DU-145 prostate): > 100 µM | TGI (OVCAR-4 ovarian): > 100 µM | TGI (T-47D breast): > 100 µM | TGI (U251 CNS): > 100 µM | TGI (SR leukemia): > 100 µM | TGI (TK-10 renal): > 100 µM | TGI (IGROV1 ovarian): > 100 µM | TGI (KM12 colon): > 100 µM

COc1ccc(N=C2C(=Nc3ccc(OC)cc3)N(c3ccccc3)C(=S)N2N=C=C2Sc3ccccc3N2C)cc1
TGI (NCI-H226 lung): > 100 µM | TGI (COLO 205 colon): > 100 µM | TGI (DU-145 prostate): > 100 µM | TGI (SK-OV-3 ovarian): > 100 µM | TGI (T-47D breast): > 100 µM | TGI (U251 CNS): > 100 µM | TGI (SR leukemia): > 100 µM | TGI (TK-10 renal): > 100 µM | TGI (IGROV1 ovarian): > 100 µM | TGI (KM12 colon): > 100 µM

CC1(O)OC(=O)C2=C1CCC1C2CCC2(C)C(O)CCC12 (stereo unspecified)
TGI (NCI-H226 lung): > 100 µM | TGI (DU-145 prostate): > 100 µM | TGI (OVCAR-4 ovarian): > 100 µM | TGI (T-47D breast): > 100 µM | TGI (U251 CNS): > 100 µM | TGI (SR leukemia): > 100 µM | TGI (TK-10 renal): > 100 µM | TGI (IGROV1 ovarian): > 100 µM | TGI (KM12 colon): > 100 µM

CC(C)(C)OC(=O)NCCC1CN(C(=O)c2ccccc2)c2ccccc21 (stereo unspecified)
TGI (COLO 205 colon): 40 µM | TGI (DU-145 prostate): > 100 µM | TGI (SK-OV-3 ovarian): > 100 µM | TGI (OVCAR-4 ovarian): > 100 µM | TGI (T-47D breast): 95.5 µM | TGI (U251 CNS): > 100 µM | TGI (SR leukemia): > 100 µM | TGI (TK-10 renal): > 100 µM | TGI (IGROV1 ovarian): > 100 µM | TGI (KM12 colon): > 100 µM

Nc1ccc(C(=O)NN2C(=O)C(Cl)C2c2ccccc2)cc1 (stereo unspecified)
TGI (NCI-H226 lung): > 100 µM | TGI (COLO 205 colon): > 100 µM | TGI (SK-OV-3 ovarian): > 100 µM | TGI (OVCAR-4 ovarian): > 100 µM | TGI (U251 CNS): > 100 µM | TGI (TK-10 renal): > 100 µM | TGI (IGROV1 ovarian): > 100 µM | TGI (KM12 colon): > 100 µM

CCN(CC)Cc1sc2nc3ccccc3n2c1-c1ccc(OC)cc1
TGI (NCI-H226 lung): 71.4 µM | TGI (COLO 205 colon): 77.3 µM | TGI (DU-145 prostate): > 100 µM | TGI (SK-OV-3 ovarian): > 100 µM | TGI (OVCAR-4 ovarian): > 100 µM | TGI (U251 CNS): > 100 µM | TGI (TK-10 renal): > 100 µM | TGI (IGROV1 ovarian): > 100 µM | TGI (KM12 colon): > 100 µM

CC(C)=C/C=C1/CS(=O)(=O)C=C1C
TGI (NCI-H226 lung): > 100 µM | TGI (COLO 205 colon): > 100 µM | TGI (DU-145 prostate): > 100 µM | TGI (SK-OV-3 ovarian): > 100 µM | TGI (T-47D breast): > 100 µM | TGI (U251 CNS): > 100 µM | TGI (TK-10 renal): > 100 µM | TGI (IGROV1 ovarian): > 100 µM | TGI (KM12 colon): > 100 µM
